{
  "source": "patent US4731109A",
  "about": "“Herbicidal 2-haloacetanilides” (Monsanto Company, priority 1982, dated 1988)",
  "key": {"[1]": {"system": "corn", "experiment": "Greenhouse pre-emergence GR15/GR85 selectivity test", "format": "in vivo", "settings": "Table IV", "outline": "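Active ingredient mixed into cover soil over seeded pans (pre-emergence soil incorporation), initial overhead irrigation equal to 0.64 cm rainfall, then subirrigation. Scored about 2-3 weeks after seeding; GR15 (crop) and GR85 (weed) rates in kg/ha, selectivity factor = crop GR15 / weed GR85.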"}, "[2]": {"system": "soybeans", "experiment": "Herbicidal effect in a variety of soil types", "format": "in vivo", "settings": "Table XVII A"}, "[3]": {"system": "Quackgrass", "experiment": "Herbicidal effect in a variety of soil types", "format": "in vivo", "settings": "Table XVII A; for selectivity factor (GR15/GR85): in soybeans"}, "[4]": {"system": "wild proso millet", "experiment": "Greenhouse pre-emergence GR15/GR85 selectivity test", "format": "in vivo, wild proso millet (panicum milicaeum)", "settings": "Table XIV", "outline": "(§1)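 Soil-incorporated pre-emergence treatment: compound (solvent or wettable powder) mixed into covering soil over seeded pans; overhead irrigation once, subirrigation thereafter; scored ~2-3 wk after seeding. SF = crop GR15/weed GR85 (kg/ha); NS non-selective.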"}, "[5]": {"system": "rape", "experiment": "Greenhouse pre-emergence GR15/GR85 selectivity test", "format": "in vivo", "settings": "Table VI", "outline": "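Pre-emergence soil-incorporation test: seeded pans were covered with topsoil mixed with active ingredient (in solvent or as wettable powder), overhead-irrigated (0.64 cm) or not, then subirrigated. Plants were scored about 2-3 weeks after treatment. GR15/GR85 rates are in kg/ha, and selectivity factor is crop GR15 divided by weed GR85.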"}, "[6]": {"system": "alexandergrass", "experiment": "Greenhouse pre-emergence GR15/GR85 selectivity test", "format": "in vivo", "settings": "Table XIV", "outline": "as §1"}, "[7]": {"system": "itchgrass", "experiment": "Greenhouse pre-emergence GR15/GR85 selectivity test", "format": "in vivo", "settings": "Table XIV", "outline": "as §1"}, "[8]": {"system": "Texas panicum", "experiment": "Greenhouse pre-emergence GR15/GR85 selectivity test", "format": "in vivo", "settings": "Table XIV", "outline": "as §1"}, "[9]": {"system": "fall panicum", "experiment": "Greenhouse pre-emergence GR15/GR85 selectivity test", "format": "in vivo", "settings": "Table XIV", "outline": "as §1"}, "[10]": {"system": "seedling johnsongrass", "experiment": "Greenhouse pre-emergence GR15/GR85 selectivity test", "format": "in vivo", "settings": "Table XIV", "outline": "as §1"}, "[11]": {"system": "shattercane", "experiment": "Greenhouse pre-emergence GR15/GR85 selectivity test", "format": "in vivo", "settings": "Table XIV", "outline": "as §1"}, "[12]": {"system": "red rice", "experiment": "Greenhouse pre-emergence GR15/GR85 selectivity test", "format": "in vivo", "settings": "Table XIV", "outline": "as §1"}, "[13]": {"system": "Quackgrass", "experiment": "Greenhouse pre-emergence GR15/GR85 selectivity test", "format": "in vivo"}, "[14]": {"system": "Yellow Nutsedge", "experiment": "Greenhouse pre-emergence GR15/GR85 selectivity test", "format": "in vivo", "settings": "Table IV"}},
  "data": [
    {"molecule": "CC(C)OCN(C(=O)CCl)c1ccccc1C(F)(F)F", "note": "[Example 2, N--(isopropoxymethyl)-2'-trifluoromethyl-2-chloroacetanilide]", "values": [
      {"measurement": "GR15", "setting": "[1]; Replicate #1", "value": 3.1, "unit": "Kg/Ha"},
      {"measurement": "GR15", "setting": "[1]; Replicate #2", "value": 0.78, "unit": "Kg/Ha"},
      {"measurement": "GR15", "setting": "[2]; Drummer silty clay", "value": "> 2.2", "unit": "Kg/Ha"},
      {"measurement": "GR15", "setting": "[2]; Florida muck", "value": "> 2.2", "unit": "Kg/Ha"},
      {"measurement": "GR15", "setting": "[2]; Florida sand", "value": 1.7, "unit": "Kg/Ha"},
      {"measurement": "GR15", "setting": "[2]; Ray silt loam", "value": 2.2, "unit": "Kg/Ha"},
      {"measurement": "GR15", "setting": "[2]; Sarpy silty clay", "value": "> 2.2", "unit": "Kg/Ha"},
      {"measurement": "GR85", "setting": "[3]; Drummer silty clay", "value": 0.56, "unit": "Kg/Ha"},
      {"measurement": "GR85", "setting": "[3]; Florida muck", "value": 0.95, "unit": "Kg/Ha"},
      {"measurement": "GR85", "setting": "[3]; Florida sand", "value": 0.22, "unit": "Kg/Ha"},
      {"measurement": "GR85", "setting": "[3]; Ray silt loam", "value": 0.28, "unit": "Kg/Ha"},
      {"measurement": "GR85", "setting": "[3]; Sarpy silty clay", "value": 0.43, "unit": "Kg/Ha"},
      {"measurement": "GR85", "setting": "[3]; Wabash silty clay", "value": 0.34, "unit": "Kg/Ha"},
      {"measurement": "selectivity factor (GR15/GR85)", "setting": "[3]; Drummer silty clay", "value": "> 4"},
      {"measurement": "selectivity factor (GR15/GR85)", "setting": "[3]; Florida muck", "value": "> 2"},
      {"measurement": "selectivity factor (GR15/GR85)", "setting": "[3]; Florida sand", "value": 7.5},
      {"measurement": "selectivity factor (GR15/GR85)", "setting": "[3]; Ray silt loam", "value": 8},
      {"measurement": "selectivity factor (GR15/GR85)", "setting": "[3]; Sarpy silty clay", "value": "> 5"},
      {"measurement": "GR85 Rate", "setting": "[4]", "value": 1.1, "unit": "Kg/Ha"},
      {"measurement": "selectivity factor (GR15/GR85)", "setting": "[4]; in soybeans", "value": "> 1.0"},
      {"measurement": "GR15 Rate", "setting": "[5]", "value": 1.9, "unit": "Kg/Ha"},
      {"measurement": "GR85 Rate", "setting": "[6]", "value": "> 1.1", "unit": "Kg/Ha"},
      {"measurement": "GR85 Rate", "setting": "[7]", "value": "> 1.1", "unit": "Kg/Ha"},
      {"measurement": "GR85 Rate", "setting": "[8]", "value": "> 1.12", "unit": "Kg/Ha"},
      {"measurement": "GR85 Rate", "setting": "[9]", "value": "< 0.07", "unit": "Kg/Ha"},
      {"measurement": "selectivity factor (GR15/GR85)", "setting": "[9]; in soybeans", "value": "> 16"},
      {"measurement": "GR85 Rate", "setting": "[10]", "value": 0.28, "unit": "Kg/Ha"},
      {"measurement": "selectivity factor (GR15/GR85)", "setting": "[10]; in soybeans", "value": "> 4.0"},
      {"measurement": "GR85 Rate", "setting": "[11]", "value": 0.93, "unit": "Kg/Ha"},
      {"measurement": "selectivity factor (GR15/GR85)", "setting": "[11]; in soybeans", "value": "> 1.12"},
      {"measurement": "GR85 Rate", "setting": "[12]", "value": 0.14, "unit": "Kg/Ha"},
      {"measurement": "selectivity factor (GR15/GR85)", "setting": "[12]; in soybeans", "value": "> 8.0"},
      {"measurement": "GR85", "setting": "[13]; Table IV, Replicate #1", "value": 0.26, "unit": "Kg/Ha"},
      {"measurement": "GR85", "setting": "[13]; Table IV, Replicate #2", "value": 0.22, "unit": "Kg/Ha"},
      {"measurement": "GR85 Rate", "setting": "[13]; Table VI", "value": 0.28, "unit": "Kg/Ha"},
      {"measurement": "selectivity factor (GR15/GR85)", "setting": "[13]; quackgrass in corn, Table IV, Replicate #1", "value": 12},
      {"measurement": "selectivity factor (GR15/GR85)", "setting": "[13]; quackgrass in corn, Table IV, Replicate #2", "value": 3.5},
      {"measurement": "selectivity factor (GR15/GR85)", "setting": "[13]; quackgrass in rape, Table VI", "value": 7},
      {"measurement": "selectivity factor (GR15/GR85)", "setting": "[13]; quackgrass in snapbeans, Table VI", "value": 8},
      {"measurement": "selectivity factor (GR15/GR85)", "setting": "[13]; quackgrass in soybeans, Table IV, Replicate #1", "value": 6.5},
      {"measurement": "selectivity factor (GR15/GR85)", "setting": "[13]; quackgrass in soybeans, Table IV, Replicate #2", "value": 7.5},
      {"measurement": "GR85", "setting": "[14]; Replicate #1", "value": 0.17, "unit": "Kg/Ha"},
      {"measurement": "GR85", "setting": "[14]; Replicate #2", "value": 0.20, "unit": "Kg/Ha"},
      {"measurement": "selectivity factor (GR15/GR85)", "setting": "[14]; yellow nutsedge in corn, Replicate #1", "value": 18},
      {"measurement": "selectivity factor (GR15/GR85)", "setting": "[14]; yellow nutsedge in corn, Replicate #2", "value": 4},
      {"measurement": "selectivity factor (GR15/GR85)", "setting": "[14]; yellow nutsedge in soybeans, Replicate #1", "value": 10},
      {"measurement": "selectivity factor (GR15/GR85)", "setting": "[14]; yellow nutsedge in soybeans, Replicate #2", "value": 8.5}
    ]}
  ]
}
